{"source": "paper PMC5218480", "about": "(PLoS ONE, 2017)", "system": "MV-4-11 cells", "assay": "Gene expression microarray analysis (Affymetrix PrimeView) and GSEA", "assay_type": "cell-based, human", "set-up": "RFU PODN (11730768_x_at) / Fold change /veh PODN (11730768_x_at) / RFU LINC00158 (11744669_a_at) / Fold change /veh LINC00158 (11744669_a_at) / RFU DUSP10 (11751237_a_at) / Fold change /veh DUSP10 (11751237_a_at) / RFU ID3 (11757404_x_at) / Fold change /veh ID3 (11757404_x_at) / RFU PLEKHG5 (11737974_s_at) / Fold change /veh PLEKHG5 (11737974_s_at) / RFU LRRC4B (11730491_at) / Fold change /veh LRRC4B (11730491_at) / RFU GIMAP4 (11747438_a_at) / Fold change /veh GIMAP4 (11747438_a_at) / RFU KRT8 (11758183_x_at) / Fold change /veh KRT8 (11758183_x_at) / RFU CNN1 (11734310_a_at) / Fold change /veh CNN1 (11734310_a_at) / RFU VPS37D (11726825_at) / Fold change /veh VPS37D (11726825_at) / RFU C10orf10 (11716522_x_at) / Fold change /veh C10orf10 (11716522_x_at) / RFU KIR2DL2 /// KIR2DL4 /// KIR2DL5A /// KIR2DL5B /// KIR2DS1 /// KIR2DS2 /// KIR2DS3 /// KIR2DS4 /// KIR3DL3 /// KIR3DL3 /// KIR3DS1 (11738374_at) / Fold change /veh KIR2DL2 /// KIR2DL4 /// KIR2DL5A /// KIR2DL5B /// KIR2DS1 /// KIR2DS2 /// KIR2DS3 /// KIR2DS4 /// KIR3DL3 /// KIR3DL3 /// KIR3DS1 (11738374_at) / RFU C1QL1 (11718748_at) / Fold change /veh C1QL1 (11718748_at) / RFU TMPRSS4 (11747572_a_at) / Fold change /veh TMPRSS4 (11747572_a_at) / RFU HAMP (11756126_x_at) / Fold change /veh HAMP (11756126_x_at) / RFU RNFT2 (11725882_a_at) / Fold change /veh RNFT2 (11725882_a_at) / RFU NR4A2 (11747474_a_at) / Fold change /veh NR4A2 (11747474_a_at) / RFU ABCC12 (11746883_a_at) / Fold change /veh ABCC12 (11746883_a_at) / RFU TMEM136 (11760407_x_at) / Fold change /veh TMEM136 (11760407_x_at) / RFU CLDN22 /// WWC2 (11732394_at) / Fold change /veh CLDN22 /// WWC2 (11732394_at) / RFU HLA-DPB1 (11760878_x_at) / Fold change /veh HLA-DPB1 (11760878_x_at) / RFU SPINT1 (11716480_a_at) / Fold change /veh SPINT1 (11716480_a_at) / RFU GAP43 (11754022_s_at) / Fold change /veh GAP43 (11754022_s_at) / RFU A4GNT (11735810_at) / Fold change /veh A4GNT (11735810_at) / RFU PRB3 (11715151_x_at) / Fold change /veh PRB3 (11715151_x_at) / RFU TUBB4B (11761932_at) / Fold change /veh TUBB4B (11761932_at) / RFU CAPN14 (11732068_a_at) / Fold change /veh CAPN14 (11732068_a_at) / RFU TMCC2 (11721928_a_at) / Fold change /veh TMCC2 (11721928_a_at) / RFU IRGQ (11745062_a_at) / Fold change /veh IRGQ (11745062_a_at) / RFU FAM174B (11720279_a_at) / Fold change /veh FAM174B (11720279_a_at) / RFU TMPRSS4 (11748680_a_at) / Fold change /veh TMPRSS4 (11748680_a_at) / RFU FAM212B (11763350_a_at) / Fold change /veh FAM212B (11763350_a_at) / RFU PLEKHG5 (11743358_a_at) / Fold change /veh PLEKHG5 (11743358_a_at) / RFU ZSCAN30 (11745921_a_at) / Fold change /veh ZSCAN30 (11745921_a_at) / RFU CMKLR1 (11741424_a_at) / Fold change /veh CMKLR1 (11741424_a_at) / RFU LOC101060620 /// MAPK8IP1 (11723275_at) / Fold change /veh LOC101060620 /// MAPK8IP1 (11723275_at) / RFU SPTSSB (11747773_x_at) / Fold change /veh SPTSSB (11747773_x_at) / RFU PRSS12 (11739890_at) / Fold change /veh PRSS12 (11739890_at) / RFU BIN1 (11741810_x_at) / Fold change /veh BIN1 (11741810_x_at) / RFU WNT11 (11732464_a_at) / Fold change /veh WNT11 (11732464_a_at) / RFU C10orf10 (11716521_a_at) / Fold change /veh C10orf10 (11716521_a_at) / RFU C5orf56 (11738089_at) / Fold change /veh C5orf56 (11738089_at) / RFU CYB561 (11721691_x_at) / Fold change /veh CYB561 (11721691_x_at) / RFU ANKRD19P (11752326_a_at) / Fold change /veh ANKRD19P (11752326_a_at) / RFU OR2T12 /// OR2T33 /// OR2T8 (11738714_s_at) / Fold change /veh OR2T12 /// OR2T33 /// OR2T8 (11738714_s_at) / RFU VCAN (11748164_a_at) / Fold change /veh VCAN (11748164_a_at) / RFU JSRP1 (11732532_at) / Fold change /veh JSRP1 (11732532_at) / RFU KRTAP10-11 (11738290_x_at) / Fold change /veh KRTAP10-11 (11738290_x_at) / RFU MYO3A (11730013_a_at) / Fold change /veh MYO3A (11730013_a_at) / RFU EBF3 (11725865_a_at) / Fold change /veh EBF3 (11725865_a_at) / RFU CAMK2N1 (11719241_x_at) / Fold change /veh CAMK2N1 (11719241_x_at) / RFU C5orf56 (11738088_a_at) / Fold change /veh C5orf56 (11738088_a_at) / RFU OLFML3 (11715873_a_at) / Fold change /veh OLFML3 (11715873_a_at) / RFU LOC100653217 /// NTM (11731650_a_at) / Fold change /veh LOC100653217 /// NTM (11731650_a_at) / RFU MAPK11 (11762145_a_at) / Fold change /veh MAPK11 (11762145_a_at) / RFU FIZ1 (11724087_x_at) / Fold change /veh FIZ1 (11724087_x_at) / RFU OASL (11726364_x_at) / Fold change /veh OASL (11726364_x_at) / RFU SOX15 (11748057_x_at) / Fold change /veh SOX15 (11748057_x_at) / RFU CD79A (11719716_a_at) / Fold change /veh CD79A (11719716_a_at) / RFU HIST1H1D (11736915_at) / Fold change /veh HIST1H1D (11736915_at) / RFU CASKIN2 (11723855_a_at) / Fold change /veh CASKIN2 (11723855_a_at) / RFU LOC730098 (11760151_x_at) / Fold change /veh LOC730098 (11760151_x_at) / RFU OR4N2 (11742367_at) / Fold change /veh OR4N2 (11742367_at) / RFU PRRT2 (11749266_a_at) / Fold change /veh PRRT2 (11749266_a_at) / RFU SNX32 (11753110_a_at) / Fold change /veh SNX32 (11753110_a_at) / RFU CDHR5 (11726645_a_at) / Fold change /veh CDHR5 (11726645_a_at) / RFU RCAN1 (11760418_a_at) / Fold change /veh RCAN1 (11760418_a_at) / RFU FAM167A (11723789_a_at) / Fold change /veh FAM167A (11723789_a_at) / RFU FAM26E (11764081_at) / Fold change /veh FAM26E (11764081_at) / RFU ISYNA1 (11749810_s_at) / Fold change /veh ISYNA1 (11749810_s_at) / RFU ACY1 (11761880_at) / Fold change /veh ACY1 (11761880_at) / RFU 11764098_at / Fold change /veh 11764098_at / RFU SAMD14 (11745864_x_at) / Fold change /veh SAMD14 (11745864_x_at) / RFU NPB (11741838_a_at) / Fold change /veh NPB (11741838_a_at) / RFU TMPRSS6 (11731388_a_at) / Fold change /veh TMPRSS6 (11731388_a_at) / RFU KRTAP10-2 (11738614_at) / Fold change /veh KRTAP10-2 (11738614_at) / RFU ARHGAP8 /// PRR5-ARHGAP8 (11727945_x_at) / Fold change /veh ARHGAP8 /// PRR5-ARHGAP8 (11727945_x_at) / RFU KRTAP5-7 /// NADSYN1 (11734609_at) / Fold change /veh KRTAP5-7 /// NADSYN1 (11734609_at) / RFU RASL12 (11751679_a_at) / Fold change /veh RASL12 (11751679_a_at) / RFU CDKN2B (11736163_a_at) / Fold change /veh CDKN2B (11736163_a_at) / RFU PRF1 (11729649_at) / Fold change /veh PRF1 (11729649_at) / RFU, ZNF638 /// ZNF638-IT1 / Fold change vs veh, ZNF638 /// ZNF638-IT1 / RFU, PANK3 / Fold change vs veh, PANK3 / RFU, SH3YL1 / Fold change vs veh, SH3YL1 / RFU, ZEB2 / Fold change vs veh, ZEB2 / RFU, NRIP1 / Fold change vs veh, NRIP1 / RFU, PTTG1IP / Fold change vs veh, PTTG1IP / RFU, CAPN2 / Fold change vs veh, CAPN2 / RFU, MED14 / Fold change vs veh, MED14 / RFU, SNORA58 / Fold change vs veh, SNORA58 / RFU, C1orf63 / Fold change vs veh, C1orf63 / RFU, LRRFIP1 / Fold change vs veh, LRRFIP1 / RFU, NDUFAF7 / Fold change vs veh, NDUFAF7 / RFU, SLC12A2 / Fold change vs veh, SLC12A2 / RFU, IBTK / Fold change vs veh, IBTK / RFU, ESF1 / Fold change vs veh, ESF1 / Fold change vs veh, TMEM50B / RFU, TAOK1 / Fold change vs veh, TAOK1 / RFU, ACBD3 / Fold change vs veh, ACBD3 / RFU, TMA16 / Fold change vs veh, TMA16 / RFU, RWDD3 / Fold change vs veh, RWDD3 / RFU, BCAT1 / Fold change vs veh, BCAT1 / RFU, EDEM3 / Fold change vs veh, EDEM3 / RFU, TMEM33 / Fold change vs veh, TMEM33 / RFU, WDR75 / Fold change vs veh, WDR75 / RFU, AHCTF1 / Fold change vs veh, AHCTF1 / RFU, TFRC / Fold change vs veh, TFRC / RFU, ZDHHC17 / Fold change vs veh, ZDHHC17 / RFU, NOM1 / Fold change vs veh, NOM1 / RFU, ARL8B / Fold change vs veh, ARL8B / RFU, ZBTB11 / Fold change vs veh, ZBTB11 / RFU, TAMM41 / Fold change vs veh, TAMM41 / RFU, KIAA1704 /// LOC100996395 / Fold change vs veh, KIAA1704 /// LOC100996395 / RFU, ING1 / Fold change vs veh, ING1 / RFU, TRMT61B / Fold change vs veh, TRMT61B / RFU, FUBP3 / Fold change vs veh, FUBP3 / RFU, TP53 / Fold change vs veh, TP53 / RFU, TNKS2 / Fold change vs veh, TNKS2 / RFU, ZFP14 / Fold change vs veh, ZFP14 / RFU, ACTR2 / Fold change vs veh, ACTR2 / RFU, PPP3R1 / Fold change vs veh, PPP3R1 / RFU, PIK3R1 / Fold change vs veh, PIK3R1 / RFU, HNRNPA1 / Fold change vs veh, HNRNPA1 / RFU, RNF170 / Fold change vs veh, RNF170 / RFU, ZNF28 / Fold change vs veh, ZNF28 / RFU, RNGTT / Fold change vs veh, RNGTT / RFU, OGT / Fold change vs veh, OGT / RFU, BRD1 / Fold change vs veh, BRD1 / RFU, MARS / Fold change vs veh, MARS / RFU, ZNF655 / Fold change vs veh, ZNF655 / RFU, FAHD1 / Fold change vs veh, FAHD1 / RFU, BDP1 / Fold change vs veh, BDP1 / RFU, LRRCC1 / Fold change vs veh, LRRCC1 / RFU, ARID1A / Fold change vs veh, ARID1A / RFU, ZNF146 / Fold change vs veh, ZNF146 / RFU, ZNF330 / Fold change vs veh, ZNF330 / RFU, GPN3 / Fold change vs veh, GPN3 / RFU, C9orf123 / Fold change vs veh, C9orf123 / RFU, N4BP2L2 / Fold change vs veh, N4BP2L2 / RFU, ARFIP1 / Fold change vs veh, ARFIP1 / RFU, FAM179B / Fold change vs veh, FAM179B / RFU, BCL10 / Fold change vs veh, BCL10 / RFU, UHRF1BP1L / Fold change vs veh, UHRF1BP1L / RFU, BET1 / Fold change vs veh, BET1 / RFU, CNOT2 / Fold change vs veh, CNOT2 / RFU, ZNF268 / Fold change vs veh, ZNF268 / Fold change vs veh, ZNF507 / RFU, DGCR2 / Fold change vs veh, DGCR2 / RFU, WDSUB1 / Fold change vs veh, WDSUB1 / Fold change vs veh, HSP90B1 /// MIR3652 / RFU, ADSS / Fold change vs veh, ADSS / RFU, GK / Fold change vs veh, GK / RFU, ZNF148 / Fold change vs veh, ZNF148 / RFU, TAF9 / Fold change vs veh, TAF9 / RFU, SLC1A5 / Fold change vs veh, SLC1A5 / RFU, SLMO2 / Fold change vs veh, SLMO2 / RFU, ABCC4 / Fold change vs veh, ABCC4 / RFU, LOC101060439 /// RAP1B / Fold change vs veh, LOC101060439 /// RAP1B / RFU, RFX7 / Fold change vs veh, RFX7 / RFU, GTPBP10 / Fold change vs veh, GTPBP10 / RFU, CNEP1R1 / Fold change vs veh, CNEP1R1 / RFU, BIVM-ERCC5 /// ERCC5 / Fold change vs veh, BIVM-ERCC5 /// ERCC5 / RFU, ILF3 / Fold change vs veh, ILF3 / RFU 11762660_at / Fold change /veh 11762660_at / RFU VCAN (11757783_s_at) / Fold change /veh VCAN (11757783_s_at) / RFU DDX43 (11728927_at) / Fold change /veh DDX43 (11728927_at) / RFU KRT8 (11758188_x_at) / Fold change /veh KRT8 (11758188_x_at) / RFU NKD1 (11759106_at) / Fold change /veh NKD1 (11759106_at) / RFU SRD5A1 (11742802_a_at) / Fold change /veh SRD5A1 (11742802_a_at) / RFU TPSAB1 /// TPSB2 (11721975_s_at) / Fold change /veh TPSAB1 /// TPSB2 (11721975_s_at) / RFU GSTM3 (11746129_a_at) / Fold change /veh GSTM3 (11746129_a_at) / RFU IL23R (11737362_x_at) / Fold change /veh IL23R (11737362_x_at) / RFU TMEM51 (11727254_a_at) / Fold change /veh TMEM51 (11727254_a_at) / RFU PIWIL2 (11732686_x_at) / Fold change /veh PIWIL2 (11732686_x_at) / RFU ORM1 (11744905_x_at) / Fold change /veh ORM1 (11744905_x_at) / RFU CCDC152 (11743942_at) / Fold change /veh CCDC152 (11743942_at) / RFU ECM1 (11717891_a_at) / Fold change /veh ECM1 (11717891_a_at) / RFU IL23R (11748794_a_at) / Fold change /veh IL23R (11748794_a_at) / RFU TNFAIP8L3 (11732012_x_at) / Fold change /veh TNFAIP8L3 (11732012_x_at) / RFU MBOAT4 (11741988_at) / Fold change /veh MBOAT4 (11741988_at) / RFU 11764193_at / Fold change /veh 11764193_at / RFU TMEM53 (11763286_at) / Fold change /veh TMEM53 (11763286_at) / RFU MAGEB2 (11727129_at) / Fold change /veh MAGEB2 (11727129_at) / RFU TMEM200A (11744735_a_at) / Fold change /veh TMEM200A (11744735_a_at) / RFU CCDC152 (11751479_a_at) / Fold change /veh CCDC152 (11751479_a_at) / RFU FAM211A (11726209_a_at) / Fold change /veh FAM211A (11726209_a_at) / RFU RGS16 (11746705_a_at) / Fold change /veh RGS16 (11746705_a_at) / RFU VCAN (11755009_s_at) / Fold change /veh VCAN (11755009_s_at) / RFU RHOB (11743442_s_at) / Fold change /veh RHOB (11743442_s_at) / RFU RGS16 (11720943_a_at) / Fold change /veh RGS16 (11720943_a_at) / RFU RGS16 (11720944_at) / Fold change /veh RGS16 (11720944_at) / RFU, VPS4B / Fold change vs veh, VPS4B / RFU, CREB1 / Fold change vs veh, CREB1 / RFU, DNAJC13 / Fold change vs veh, DNAJC13 / RFU, GNAQ / Fold change vs veh, GNAQ / RFU, CDK5R1 / Fold change vs veh, CDK5R1 / RFU, ZRANB3 / Fold change vs veh, ZRANB3 / RFU, CUL4A / Fold change vs veh, CUL4A / RFU, CCNY / Fold change vs veh, CCNY / RFU, UFL1 / Fold change vs veh, UFL1 / RFU, COG3 / Fold change vs veh, COG3 / RFU, DIAPH2 / Fold change vs veh, DIAPH2 / RFU, SKA2 / Fold change vs veh, SKA2 / RFU, AFF3 / Fold change vs veh, AFF3 / RFU, LMF1 / Fold change vs veh, LMF1 / RFU, IPO11 / Fold change vs veh, IPO11 / RFU, DFFB / Fold change vs veh, DFFB / RFU, FOXP1 / Fold change vs veh, FOXP1 / RFU, CARD8 / Fold change vs veh, CARD8 / RFU, STRN3 / Fold change vs veh, STRN3 / RFU, ADK / Fold change vs veh, ADK / RFU, RASSF2 / Fold change vs veh, RASSF2 / RFU, WIPF1 / Fold change vs veh, WIPF1 / RFU, LARP1B / Fold change vs veh, LARP1B / RFU, RASA1 / Fold change vs veh, RASA1 / RFU, RB1 / Fold change vs veh, RB1 / RFU, PPFIA1 / Fold change vs veh, PPFIA1 / RFU, MAT2A / Fold change vs veh, MAT2A / RFU, CCT5 / Fold change vs veh, CCT5 / RFU, WDR92 / Fold change vs veh, WDR92 / RFU, CUX1 / Fold change vs veh, CUX1 / RFU, TTC7A / Fold change vs veh, TTC7A / RFU, TMEM135 / Fold change vs veh, TMEM135 / RFU, DEPTOR / Fold change vs veh, DEPTOR / RFU, CPM / Fold change vs veh, CPM / RFU, DNAJB6 / Fold change vs veh, DNAJB6 / RFU, CACNA2D3 / Fold change vs veh, CACNA2D3 / RFU, DTX4 / Fold change vs veh, DTX4 / RFU, TFCP2 / Fold change vs veh, TFCP2 / RFU, GMCL1 /// GMCL1P1 / Fold change vs veh, GMCL1 /// GMCL1P1 / RFU, AEBP2 / Fold change vs veh, AEBP2 / RFU, SNHG1 /// SNORD22 /// SNORD25 /// SNORD26 /// SNORD27 /// SNORD28 /// SNORD29 /// SNORD31 / Fold change vs veh, SNHG1 /// SNORD22 /// SNORD25 /// SNORD26 /// SNORD27 /// SNORD28 /// SNORD29 /// SNORD31 / Fold change (Aza/veh), C12orf56 (ProbeSet 11735607_a_at) / Fold change (ACY-1035/veh), C12orf56 (ProbeSet 11735607_a_at) / Fold change (Aza/veh), FGFR1OP (ProbeSet 11751329_s_at) / Fold change (ACY-1035/veh), FGFR1OP (ProbeSet 11751329_s_at) / Fold change (Aza/veh), VPS36 (ProbeSet 11739960_a_at) / Fold change (ACY-1035/veh), VPS36 (ProbeSet 11739960_a_at) / RFU SYPL1 (11715823_x_at) / Fold change /veh SYPL1 (11715823_x_at) / RFU IGFBP7 (11715501_s_at) / Fold change /veh IGFBP7 (11715501_s_at) / RFU REEP3 (11722064_at) / Fold change /veh REEP3 (11722064_at) / RFU IGLL1 (11728026_x_at) / Fold change /veh IGLL1 (11728026_x_at): dose or concentration left out as unconfirmed", "details": "MV-4-11 cells, 48 hours"}
{"molecule": "Nc1ncn([C@@H]2O[C@H](CO)[C@@H](O)[C@H]2O)c(=O)n1", "note": "[azacitidine]", "values": [{"measurement": "RFU PLEKHG5 (11737974_s_at)", "value": 50.98, "unit": "RFU"}]}
